According to ChEMBL document CHEMBL1127127, “Avermectin B1-8,9-oxide: reactivity, bioactivity, and stereochemistry” (1993):

System: Artemia
Assay: Tested for bioactivity against Brine Shrimp
Format: functional

SMILES | IC100 [ng/mL]
CC[C@H](C)[C@H]1O[C@]2(C=C[C@@H]1C)C[C@@H]1C[C@@H](C/C=C(\C)[C@@H](O[C@@H]3C[C@@H](OC)[C@H](O[C@@H]4C[C@@H](OC)[C@H](O)[C@@H](C)O4)[C@@H](C)O3)[C@@H](C)/C=C/C(O)[C@]3(O)COC4[C@H](O)C(C)=C[C@@H](C(=O)O1)[C@@]43O)O2 (stereo not given in full) | >55000
CC[C@H](C)[C@H]1O[C@]2(C=C[C@@H]1C)C[C@@H]1C[C@@H](C/C=C(\C)[C@@H](O[C@@H]3C[C@@H](OC)[C@H](O[C@@H]4C[C@@H](OC)[C@H](O)[C@@H](C)O4)[C@@H](C)O3)[C@@H](C)/C=C/C(Sc3ccccc3)[C@]3(O)COC4[C@H](O)C(C)=C[C@@H](C(=O)O1)[C@@]43O)O2 (stereo not given in full) | >55000
CC[C@H](C)[C@H]1O[C@]2(C=C[C@@H]1C)C[C@@H]1C[C@@H](C/C=C(\C)[C@@H](O[C@@H]3C[C@@H](OC)[C@H](O[C@@H]4C[C@@H](OC)[C@H](O)[C@@H](C)O4)[C@@H](C)O3)[C@@H](C)/C=C/[C@@H]3O[C@]34COC3[C@H](O)C(C)=C[C@@H](C(=O)O1)[C@@]34O)O2 (stereo not given in full) | 650
CC[C@H](C)[C@H]1O[C@]2(C=C[C@@H]1C)C[C@@H]1C[C@@H](C/C=C(\C)[C@@H](O[C@@H]3C[C@@H](OC)[C@H](O[C@@H]4C[C@@H](OC)[C@H](O)[C@@H](C)O4)[C@@H](C)O3)[C@@H](C)/C=C/C=C3\COC4[C@H](O)C(C)=C[C@@H](C(=O)O1)[C@]34O)O2 (stereo not given in full) | 335
CC[C@H](C)[C@H]1O[C@]2(CC[C@@H]1C)C[C@@H]1C[C@@H](C/C=C(\C)[C@@H](O[C@@H]3C[C@@H](OC)[C@H](O[C@@H]4C[C@@H](OC)[C@H](O)[C@@H](C)O4)[C@@H](C)O3)[C@@H](C)/C=C/C=C3\COC4[C@H](O)C(C)=C[C@@H](C(=O)O1)[C@]34O)O2 (stereo not given in full) | 430
